Reference: patent US20220251163A1 (Sinopep-Allsino Biopharmaceutical Co., Ltd., priority 2019, published 2022)
*1 amine or outer side, *2 acyl side, *3 side chain or, on linkers, in order; H or OH if unused. Where a SMILES comes first, the peptide text is derived from it. Side-chain parts run from the residue outwards. [ ]: non-standard residue; d: D form. The star is where a group is joined. C18 diacid = O=C(O)CCCCCCCCCCCCCCCCC(=O)*; γGlu = O=C(O)[C@H](CCC(=O)[*:2])N[*:1]; AEEA = NCCOCCOCC(=O)O; Aib = CC(C)(N)C(=O)O

Legend:
mGLP-1R = molecular target: T1, mGLP-1R (Mus musculus, UniProt O35659); experiment: GLP-1R agonist activity, cAMP in transfected HEK293 cells; type: cell-based
T1 construct: expressed in transfected cells; host or cells: HEK293
T1 sequence (O35659 22-463): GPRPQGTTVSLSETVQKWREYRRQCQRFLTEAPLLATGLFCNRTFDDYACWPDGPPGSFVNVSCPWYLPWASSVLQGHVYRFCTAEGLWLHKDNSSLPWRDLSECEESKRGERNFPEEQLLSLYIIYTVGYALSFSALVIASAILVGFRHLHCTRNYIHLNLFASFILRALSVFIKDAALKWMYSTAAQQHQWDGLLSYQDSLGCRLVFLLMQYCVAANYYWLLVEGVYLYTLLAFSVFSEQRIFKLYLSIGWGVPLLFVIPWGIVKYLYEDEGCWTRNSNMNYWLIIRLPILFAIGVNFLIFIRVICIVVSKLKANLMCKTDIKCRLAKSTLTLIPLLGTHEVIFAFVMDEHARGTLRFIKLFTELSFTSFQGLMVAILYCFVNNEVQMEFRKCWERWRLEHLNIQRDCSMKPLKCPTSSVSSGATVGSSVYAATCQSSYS

[1] = Effect on random weight of ob/ob mice after single subcutaneous injection; type: in vivo; settings: 100 μg/kg single s.c., X ± s, n = 7
Description: The mice in each group received random blood glucose value measurement before (0 h) administration and 2, 4, 6, 10 and 24 h after administration, and then the time for measuring the random blood glucose was adjusted and prolonged to 34, 48, 58 or 72 h after administration according to the blood glucose condition of the mice in each group. Meanwhile, the random weight of the mice in each group before (0 h) administration and 24 h after administration was weighed, and then the random weight of the mice corresponding to the random blood glucose measurement condition 48 or 72 h after administration was weighed.

mGIPR = molecular target: T2, mGIPR (Mus musculus, UniProt Q0P543); experiment: GIPR agonist activity, cAMP in transfected HEK293 cells; type: cell-based
T2 construct: expressed in transfected cells; host or cells: HEK293
T2 sequence (Q0P543 19-460): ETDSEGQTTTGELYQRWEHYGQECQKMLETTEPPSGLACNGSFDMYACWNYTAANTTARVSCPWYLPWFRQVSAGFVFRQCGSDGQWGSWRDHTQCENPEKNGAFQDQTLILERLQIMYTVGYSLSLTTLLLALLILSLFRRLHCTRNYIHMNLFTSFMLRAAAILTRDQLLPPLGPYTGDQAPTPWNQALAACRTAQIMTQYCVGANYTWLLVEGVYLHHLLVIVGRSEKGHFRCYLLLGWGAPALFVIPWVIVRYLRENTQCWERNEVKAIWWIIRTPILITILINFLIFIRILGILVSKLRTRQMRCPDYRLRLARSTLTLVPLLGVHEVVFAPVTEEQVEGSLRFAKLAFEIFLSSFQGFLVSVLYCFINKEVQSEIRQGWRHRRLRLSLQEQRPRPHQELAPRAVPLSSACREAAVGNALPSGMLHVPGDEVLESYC
Description: HEK293 cells were co-transfected with cDNA encoding GLP-1R or GIPR. In a test for determining the compound, the cells were inoculated in a 96-well plate 2 h in advance, the polypeptide compound was dissolved with DMSO, and diluted to different multiples with a culture medium containing 0.1% bovine serum albumin and added to the co-transfected cells.

ob/ob mice = experiment: Blood glucose reducing experiment, single subcutaneous injection in ob/ob mice; type: in vivo; settings: 100 μg/kg single s.c.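 Further: random blood glucose read at each time point, decrease rate given as percentage fall versus the model control group.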

Compound: CC[C@H](C)[C@H](NC(=O)[C@H](CCCCN)NC(=O)[C@H](CC(=O)O)NC(=O)[C@H](CC(C)C)NC(=O)[C@H](C)NC(=O)[C@@H](NC(=O)[C@H](CO)NC(=O)[C@H](Cc1ccc(O)cc1)NC(=O)[C@H](CC(=O)O)NC(=O)[C@H](CO)NC(=O)[C@@H](NC(=O)[C@H](Cc1ccccc1)NC(=O)[C@@H](NC(=O)CNC(=O)[C@H](CCC(=O)O)NC(=O)C(C)(C)NC(=O)[C@@H](N)Cc1ccc(O)cc1)[C@@H](C)O)[C@@H](C)O)[C@@H](C)CC)C(=O)N[C@@H](C)C(=O)N[C@@H](CCC(N)=O)C(=O)N[C@@H](CCCCNC(=O)COCCOCCNC(=O)COCCOCCNC(=O)CC[C@H](NC(=O)CCCCCCCCCCCCCCCCC(=O)O)C(=O)O)C(=O)N[C@@H](C)C(=O)N[C@@H](Cc1ccccc1)C(=O)N[C@H](C(=O)N[C@@H](CCC(N)=O)C(=O)N[C@@H](Cc1c[nH]c2ccccc12)C(=O)N[C@@H](CC(C)C)C(=O)N[C@H](C(=O)N[C@@H](C)C(=O)NCC(=O)NCC(=O)N1CCC[C@H]1C(=O)N[C@@H](CO)C(=O)N[C@@H](CO)C(=O)NCC(=O)N[C@@H](C)C(=O)N1CCC[C@H]1C(=O)N1CCC[C@H]1C(=O)N1CCC[C@H]1C(=O)N[C@@H](CO)C(N)=O)[C@@H](C)CC)C(C)C [ID NO: 6] (H-Y[Aib]EGTFTSDYSIALDKIAQK([AEEA-AEEA-γGlu-C18 diacid])AFVQWLIAGGPSSGAPPPS-NH2)
- EC50 (mGLP-1R): 2.58 pM
- Changes of random body weight at different time after administration, 0 h ([1]; 0 h): 0.0 ± 0.0 g
- Random body weight at different time after administration, 0 h ([1]; 0 h): 43.5 ± 0.6 g
- Changes of random body weight at different time after administration, 24 h ([1]; 24 h): -1.5 ± 0.2 g
- Random body weight at different time after administration, 24 h ([1]; 24 h): 42.1 ± 0.7 g
- Changes of random body weight at different time after administration, 48 h ([1]; 48 h): -0.8 ± 0.1 g
- Random body weight at different time after administration, 48 h ([1]; 48 h): 42.7 ± 0.7 g
- EC50 (mGIPR): 9.29 pM
- Blood glucose at different time after administration, 0 h (ob/ob mice; 0 h (before administration), X ± s, n = 7): 20.64 ± 0.77 mmol/L
- Decrease rate of blood glucose at different time after administration, 2 h (ob/ob mice; 2 h): 52.7%
- Blood glucose at different time after administration, 2 h (ob/ob mice; 2 h, X ± s, n = 7): 9.76 ± 0.83 mmol/L
- Decrease rate of blood glucose at different time after administration, 4 h (ob/ob mice; 4 h): 56.6%
- Blood glucose at different time after administration, 4 h (ob/ob mice; 4 h, X ± s, n = 7): 8.96 ± 0.77 mmol/L
- Decrease rate of blood glucose at different time after administration, 6 h (ob/ob mice; 6 h): 58.6%
- Blood glucose at different time after administration, 6 h (ob/ob mice; 6 h, X ± s, n = 7): 8.55 ± 0.96 mmol/L
- Decrease rate of blood glucose at different time after administration, 10 h (ob/ob mice; 10 h): 51.9%
- Blood glucose at different time after administration, 10 h (ob/ob mice; 10 h, X ± s, n = 7): 9.93 ± 0.76 mmol/L
- Decrease rate of blood glucose at different time after administration, 24 h (ob/ob mice; 24 h): 49.0%
- Blood glucose at different time after administration, 24 h (ob/ob mice; 24 h, X ± s, n = 7): 10.53 ± 1.21 mmol/L
- Decrease rate of blood glucose at different time after administration, 34 h (ob/ob mice; 34 h): 36.4%
- Blood glucose at different time after administration, 34 h (ob/ob mice; 34 h, X ± s, n = 7): 13.13 ± 2.21 mmol/L
- Decrease rate of blood glucose at different time after administration, 48 h (ob/ob mice; 48 h): 13.8%
- AUC0-24 h Glu (ob/ob mice; blood glucose curve area within 24 h, X ± s, n = 7): 246.81 ± 18.95 mmol·h/L
- AUC0-24 h Glu Decrease rate (ob/ob mice; versus model control group): 51.7%
